Literature values in patent US20040091555A1 (priority 2003, published 2004).

System: hepatocellular carcinoma
Details: phase II clinical trials, patients with hepatocellular carcinoma

In the case of CC(=O)O[C@H]1C(=O)[C@@]2(C)[C@H]([C@H](OC(=O)c3ccccc3)[C@]3(O)C[C@H](OC(=O)[C@H](O)[C@@H](NC(=O)c4ccccc4)c4ccccc4)C(C)=C1C3(C)C)[C@]1(OC(C)=O)CO[C@@H]1C[C@@H]2O [paclitaxel], the “efficacy on hepatocellular carcinoma” value is given as “no significant efficacy on hepatocellular carcinoma”.
